18 molecules from ChEMBL document CHEMBL1155471, “Discovery of potent, balanced and orally active dual NK1/NK3 receptor ligands” (Bioorg Med Chem Lett, 2010) can be followed below.

A word on the Ki: it is the equilibrium dissociation constant of an inhibitor or competing ligand from its target. High values mean weaker binding, low ones tighter binding. Broadly, the inhibition in vivo is the drop in the measured response relative to a control, in per cent. A high value points to a response far below the control.

For one assay, the target named is T1, Neuromedin-K receptor (Homo sapiens, UniProt P29371).
T1 sequence (P29371 whole entry): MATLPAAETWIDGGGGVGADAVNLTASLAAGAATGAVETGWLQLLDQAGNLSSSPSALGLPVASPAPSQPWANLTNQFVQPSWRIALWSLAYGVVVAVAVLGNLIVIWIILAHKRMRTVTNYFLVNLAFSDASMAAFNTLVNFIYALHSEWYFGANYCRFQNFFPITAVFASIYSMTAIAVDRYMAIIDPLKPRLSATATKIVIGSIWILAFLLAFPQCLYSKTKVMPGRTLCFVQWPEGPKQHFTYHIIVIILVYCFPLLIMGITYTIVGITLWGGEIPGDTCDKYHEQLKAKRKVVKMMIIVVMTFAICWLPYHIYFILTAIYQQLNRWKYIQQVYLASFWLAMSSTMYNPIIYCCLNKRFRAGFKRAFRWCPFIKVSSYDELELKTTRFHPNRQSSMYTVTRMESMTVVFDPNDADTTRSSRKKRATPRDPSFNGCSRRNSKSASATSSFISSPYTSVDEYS
As to the kind of experiment: Displacement of [3H]SR142801 from human NK3 receptor expressed in HEK293-EBNA cells. Format: cell-based. In general terms: In a radioligand displacement assay an active substance lowers the binding of a labelled ligand.

The target in a further assay is Substance-P receptor (Homo sapiens, UniProt P25103). Description: Displacement of [3H]substance P from human NK1 receptor expressed in CHO cells. Format: cell-based.
Assay [1] has as its system Meriones unguiculatus. As to the kind of experiment: Inhibition of GR-73632-induced foot tapping behavior in Mongolian gerbil at 10 mg/kg, po administered 2 hrs before GR-73632 challenge. It is filed as functional.
In assay [2] the test system is Meriones unguiculatus. Description: Inhibition of GR-73632-induced foot tapping behavior in po dosed Mongolian gerbil administered 2 hrs before GR-73632 challenge. It is filed as functional. Particulars: read-out: ID50 (the source's name).

Chain of Substance-P receptor (P25103 whole entry): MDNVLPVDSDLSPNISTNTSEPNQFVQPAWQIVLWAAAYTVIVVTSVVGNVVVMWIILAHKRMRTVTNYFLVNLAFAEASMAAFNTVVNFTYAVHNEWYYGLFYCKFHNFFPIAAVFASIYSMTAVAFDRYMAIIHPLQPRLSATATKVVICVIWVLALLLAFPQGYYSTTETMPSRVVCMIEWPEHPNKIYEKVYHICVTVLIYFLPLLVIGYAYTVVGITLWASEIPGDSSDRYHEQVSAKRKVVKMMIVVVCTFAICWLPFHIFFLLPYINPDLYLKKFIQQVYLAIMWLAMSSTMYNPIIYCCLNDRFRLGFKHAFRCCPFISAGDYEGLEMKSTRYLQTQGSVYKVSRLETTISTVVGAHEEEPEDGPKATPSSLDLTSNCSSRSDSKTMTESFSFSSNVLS

For `COCCNc1cc(-c2ccccc2Cl)c(N(C)C(=O)C(C)(C)c2cc(C(F)(F)F)cc(C(F)(F)F)c2)cn1`, the Ki on Neuromedin-K receptor turned out to be 93.3 nM; on Substance-P receptor, 3.05 nM.

As for `CN(C(=O)C(C)(C)c1cc(C(F)(F)F)cc(C(F)(F)F)c1)c1cnc(N(CCO)CCCO)cc1-c1ccccc1Cl`, the Ki at Neuromedin-K receptor stood at 0.95 nM; on Substance-P receptor it was 1.38 nM.

In the case of `CN(C(=O)C(C)(C)c1cc(C(F)(F)F)cc(C(F)(F)F)c1)c1cnc(N(CCO)CCO)cc1-c1ccccc1Cl`, the Ki came to 0.91 nM at Neuromedin-K receptor and 1.15 nM on Substance-P receptor.

With `CN(C(=O)C(C)(C)c1cc(C(F)(F)F)cc(C(F)(F)F)c1)c1cnc(N2CC[C@H](O)[C@H]2CO)cc1-c1ccccc1Cl`, the figures for the Ki on Neuromedin-K receptor and on Substance-P receptor were 0.91 nM and 1.58 nM, respectively.

For the molecule `CN(C(=O)C(C)(C)c1cc(C(F)(F)F)cc(C(F)(F)F)c1)c1cnc(N2CCCC[C@@H]2CO)cc1-c1ccccc1Cl`, the Ki at Neuromedin-K receptor came to 29.7 nM; at Substance-P receptor, 2.27 nM.

Turning to `CN(CCO)c1cc(-c2ccccc2Cl)c(N(C)C(=O)C(C)(C)c2cc(C(F)(F)F)cc(C(F)(F)F)c2)cn1`, the Ki amounted to 2.91 nM at Neuromedin-K receptor and 0.78 nM on Substance-P receptor.

On to `CCCN(CCO)c1cc(-c2ccccc2Cl)c(N(C)C(=O)C(C)(C)c2cc(C(F)(F)F)cc(C(F)(F)F)c2)cn1`, for which the Ki at Neuromedin-K receptor was 5.4 nM; on Substance-P receptor, 2.24 nM. The same molecule showed an inhibition in vivo at 10 mg/kg in the assay on Meriones unguiculatus [1] of 100%.

As for `COC[C@@H]1C[C@@H](OC)CN1c1cc(-c2ccccc2Cl)c(N(C)C(=O)C(C)(C)c2cc(C(F)(F)F)cc(C(F)(F)F)c2)cn1`, the Ki is 29.8 nM at Neuromedin-K receptor and 0.91 nM on Substance-P receptor.

On to `CCN(CCO)c1cc(-c2ccccc2Cl)c(N(C)C(=O)C(C)(C)c2cc(C(F)(F)F)cc(C(F)(F)F)c2)cn1`, for which the values for the Ki at Neuromedin-K receptor and at Substance-P receptor were 12.2 nM and 3.37 nM, respectively. This molecule yielded an inhibition in vivo at 10 mg/kg in the assay with Meriones unguiculatus [1] of 100%.

For `CN(C(=O)C(C)(C)c1cc(C(F)(F)F)cc(C(F)(F)F)c1)c1cnc(N2C[C@@H](O)C[C@H]2CO)cc1-c1ccccc1Cl`, the ED50 in the assay with Meriones unguiculatus [2] worked out at 1.3 mg/kg.

For the molecule `CN(C(=O)C(C)(C)c1cc(C(F)(F)F)cc(C(F)(F)F)c1)c1cnc(N2CCCC(O)C2)cc1-c1ccccc1Cl` (configuration not stated), the Ki stood at 15.1 nM at Neuromedin-K receptor and 1.72 nM on Substance-P receptor.

`CN(C(=O)C(C)(C)c1cc(C(F)(F)F)cc(C(F)(F)F)c1)c1cnc(N2C[C@H](O)C[C@H]2CO)cc1-c1ccccc1Cl` returned a Ki on Neuromedin-K receptor of 1.12 nM. Besides, the ED50 in the assay with Meriones unguiculatus [2] came out at 1.1 mg/kg.

As to `CN(C(=O)C(C)(C)c1cc(C(F)(F)F)cc(C(F)(F)F)c1)c1cnc(N2CC[C@@H](O)C2)cc1-c1ccccc1Cl`, the Ki on Neuromedin-K receptor worked out at 6.87 nM; on Substance-P receptor, 2.62 nM.

Regarding `CN(C(=O)C(C)(C)c1cc(C(F)(F)F)cc(C(F)(F)F)c1)c1cnc(NCCO)cc1-c1ccccc1Cl`, the Ki at Substance-P receptor turned out to be 1.12 nM. The ED50 in the assay on Meriones unguiculatus [2] came out at 1 mg/kg.

In the case of `CN(C(=O)C(C)(C)c1cc(C(F)(F)F)cc(C(F)(F)F)c1)c1cnc(N2CCCC[C@H]2CO)cc1-c1ccccc1Cl`, the Ki on Neuromedin-K receptor is 7.72 nM; on Substance-P receptor, 11.1 nM.

`CN(C(=O)C(C)(C)c1cc(C(F)(F)F)cc(C(F)(F)F)c1)c1cnc(N2CCC[C@@H]2CO)cc1-c1ccccc1Cl`: the Ki on Neuromedin-K receptor came to 7.27 nM; at Substance-P receptor, 1.58 nM.

Consider `CN(C(=O)C(C)(C)c1cc(C(F)(F)F)cc(C(F)(F)F)c1)c1cnc(N2CCC[C@H]2CO)cc1-c1ccccc1Cl`, for which the Ki came out at 0.74 nM on Neuromedin-K receptor and 1 nM on Substance-P receptor.

Consider `CN(C(=O)C(C)(C)c1cc(C(F)(F)F)cc(C(F)(F)F)c1)c1cnc(N2CC[C@H](O)C2)cc1-c1ccccc1Cl`, for which the Ki at Neuromedin-K receptor is 8.38 nM; at Substance-P receptor it was 0.86 nM.
